The values below come from ChEMBL document CHEMBL3877278, “Antiproliferative activity of amino substituted benzo[b]thieno[2,3-b]pyrido[1,2-a]benzimidazoles explored by 2D and 3D cell culture system” (Eur J Med Chem, 2017).

Series [1] in a line: Antiproliferative activity against 3D culture of human SK-BR-3 cells after 72 hrs MTS assay. The settings on record: SK-BR-3, 72 h. It is filed as functional, cell-based. (In general: Tetrazolium dyes change colour on reduction, which living cells bring about.)
A short description of series [2]: Lipophilicity, log D of the compound at pH 2.7 by HPLC method. The series is classed as physicochemical. To be noted: buffer.
The nature of series [3]: Antiproliferative activity against 3D culture of human MDA-MB-231 cells after 72 hrs MTS assay. It is filed as functional, cell-based. To be noted: MDA-MB-231, 72 h.
The nature of series [4]: Antiproliferative activity against 2D culture of human T47D cells after 72 hrs MTS assay. The series is classed as functional, cell-based.
Series [5] can be described thus: Antiproliferative activity against 2D culture of human MDA-MB-231 cells after 72 hrs MTS assay. The series is classed as functional, cell-based. To be noted: MDA-MB-231, 72 h.
Series [6] can be described thus: Lipophilicity, log D of the compound at pH 7.4 by HPLC method. It is filed as physicochemical. To be noted: buffer.
A short description of series [7]: Antiproliferative activity against 2D culture of human SK-BR-3 cells after 72 hrs MTS assay. It is filed as functional, cell-based. To be noted: SK-BR-3, 72 h.
Series [8] in a line: Antiproliferative activity against 3D culture of human T47D cells after 72 hrs MTS assay. The series is classed as functional, cell-based.

For the molecule `N#Cc1cc2ccc(F)cc2n2c1nc1ccccc12`, the IC50 (as a rule, the point on the concentration scale where inhibition reaches its midpoint) in series [1] is greater than 30 µM; in series [3], greater than 30 µM; in series [4] it was greater than 30 µM; in series [5] it was 30 µM; in series [7], greater than 30 µM; in series [8] it was greater than 30 µM. Moreover, the logD (usually lipophilicity at a set pH, counting ionised and neutral species) in series [2] was 5.14; in series [6] (read-out: logD), 5.11.
Turning to `N#Cc1c(Cl)c2ccccc2n2c1nc1ccccc12`, the IC50 was greater than 30 µM in series [1]; greater than 30 µM in series [3]; 1 µM in series [4]; greater than 30 µM in series [5]; greater than 30 µM in series [7]; greater than 30 µM in series [8]. For the same molecule, the logD came to 5.9 in series [2] and 5.85 in series [6] (read-out: logD).
With `CC(C)CNc1ccc2cc(C#N)c3nc4ccccc4n3c2c1`, the IC50 is greater than 30 µM in series [1]; greater than 30 µM in series [3]; 3 µM in series [4]; 5 µM in series [5]; 1 µM in series [7]; 19 µM in series [8]. Also, the logD stood at 6.45 in series [2] and 6.58 in series [6] (read-out: logD).
As to `CN(C)CCCNc1ccc2cc(C#N)c3nc4ccccc4n3c2c1`, the IC50 in series [1] is greater than 30 µM; in series [3] it was 11 µM; in series [4], 12 µM; in series [5], 3 µM; in series [7], 4 µM; in series [8], greater than 30 µM. Further, the figures for the logD in series [2] and in series [6] (read-out: logD) were 0.44 and 2.14, respectively.
In the case of `N#Cc1cc2ccc(N3CCCCC3)cc2n2c1nc1ccccc12`, the IC50 in series [1] was greater than 30 µM; in series [3], greater than 30 µM; in series [4], greater than 30 µM; in series [5], 7 µM; in series [7], 3 µM; in series [8] it was greater than 30 µM. Besides, the values for the logD in series [2] and in series [6] (read-out: logD) were 7 and 7.07, respectively.
Take `N#Cc1cc2ccc(N3CCNCC3)cc2n2c1nc1ccccc12`: the IC50 in series [1] is greater than 30 µM; in series [3], 5 µM; in series [4], 15 µM; in series [5] it was 3 µM; in series [7] it was 2 µM; in series [8], greater than 30 µM. For the same molecule, the logD is 0.27 in series [2] and 2.01 in series [6] (read-out: logD).
As for `CC(C)CNc1c(C#N)c2nc3ccccc3n2c2ccccc12`, the IC50 in series [1] is greater than 30 µM; in series [3], greater than 30 µM; in series [4] it was greater than 30 µM; in series [5], greater than 30 µM; in series [7] it was 4 µM; in series [8], greater than 30 µM. For the same molecule, the logD turned out to be 2.77 in series [2] and 5.52 in series [6] (read-out: logD).
`CN(C)CCCNc1c(C#N)c2nc3ccccc3n2c2ccccc12`: the IC50 in series [1] was greater than 30 µM; in series [3], 7 µM; in series [4], 29 µM; in series [5], 6 µM; in series [7] it was 4 µM; in series [8] it was greater than 30 µM. Besides, the logD is -0.05 in series [2] and 2.26 in series [6] (read-out: logD).
On to `N#Cc1c(N2CCCCC2)c2ccccc2n2c1nc1ccccc12`, for which the IC50 was greater than 30 µM in series [1]; 3 µM in series [3]; greater than 30 µM in series [4]; greater than 30 µM in series [5]; greater than 30 µM in series [7]; greater than 30 µM in series [8]. The figures for the logD in series [2] and in series [6] (read-out: logD) were 6.36 and 6.91, respectively.
`N#Cc1c(N2CCNCC2)c2ccccc2n2c1nc1ccccc12`: the IC50 in series [1] is greater than 30 µM; in series [3] it was 7 µM; in series [4], greater than 30 µM; in series [5], 8 µM; in series [7], 9 µM; in series [8], greater than 30 µM. Also, the logD in series [2] is 0.53; in series [6] (read-out: logD), 2.22.
Turning to `N#Cc1c(N2CCCCC2)c2sc3cc(N4CCCCC4)ccc3c2n2c1nc1ccccc12`, the IC50 in series [1], in series [3], in series [4], in series [5], in series [7] and in series [8] was greater than 30 µM in each case.
Take `CC(C)CNc1ccc2c(c1)sc1c(NCC(C)C)c(C#N)c3nc4ccccc4n3c12`: the IC50 in series [1] was greater than 30 µM; in series [3], greater than 30 µM; in series [4], 4 µM; in series [5], greater than 30 µM; in series [7] it was greater than 30 µM; in series [8], 8 µM.
For `CN(C)CCCNc1ccc2c(c1)sc1cc(C#N)c3nc4ccccc4n3c12`, the IC50 in series [1] is 27 µM; in series [3], 5 µM; in series [4] it was 5 µM; in series [5], 2 µM; in series [7], 4 µM; in series [8] it was greater than 30 µM. In addition, the logD in series [2] is 1.03; in series [6] (read-out: logD) it was 2.91.
With `N#Cc1c(N2CCNCC2)c2ccc(N3CCNCC3)cc2n2c1nc1ccccc12`, the IC50 in series [1] is greater than 30 µM; in series [3] it was 9 µM; in series [4], 5 µM; in series [5] it was 2 µM; in series [7], 7 µM; in series [8], greater than 30 µM. Besides, the logD is -0.98 in series [2] and 0.87 in series [6] (read-out: logD).
For the molecule `N#Cc1cc2sc3cc(N4CCCCC4)ccc3c2n2c1nc1ccccc12`, the IC50 in series [1], in series [3], in series [4], in series [5], in series [7] and in series [8] was greater than 30 µM throughout. Moreover, the logD in series [2] was found to be 8.52; in series [6] (read-out: logD) it was 8.5.
As for `CC(C)CNc1ccc2c(c1)sc1cc(C#N)c3nc4ccccc4n3c12`, the IC50 was greater than 30 µM in series [1]; greater than 30 µM in series [3]; 2 µM in series [4]; 3 µM in series [5]; 5 µM in series [7]; 12 µM in series [8]. In addition, the logD worked out at 7.76 in series [2] and 7.77 in series [6] (read-out: logD).
In the case of `CC(C)CNc1ccc2c(NCC(C)C)c(C#N)c3nc4ccccc4n3c2c1`, the IC50 in series [1] is greater than 30 µM; in series [3], greater than 30 µM; in series [4], 12 µM; in series [5] it was greater than 30 µM; in series [7], 5 µM; in series [8], 19 µM.
As to `N#CC1C(=O)c2ccc(F)cc2-n2c1nc1ccccc12` (stereo not given), the IC50 in series [1], in series [3], in series [4], in series [5], in series [7] and in series [8] was greater than 30 µM in each case. Further, the results for the logD in series [2] and in series [6] (read-out: logD) were 3 and 2.46, respectively.
In the case of `N#Cc1cc2sc3cc(N4CCNCC4)ccc3c2n2c1nc1ccccc12`, the IC50 in series [1] was determined as 24 µM; in series [3] it was 19 µM; in series [4], 5 µM; in series [5], 4 µM; in series [7], 2 µM; in series [8], 26 µM. The logD in series [2] came to 0.84; in series [6] (read-out: logD) it was 2.75.
Turning to `CN(C)CCCNc1c(C#N)c2nc3ccccc3n2c2c1sc1ccccc12`, the IC50 is 10 µM in series [1]; 4 µM in series [3]; 4 µM in series [4]; 3 µM in series [5]; 1 µM in series [7]; 23 µM in series [8]. In addition, the logD in series [2] amounted to 0.69; in series [6] (read-out: logD), 3.44.
Turning to `N#Cc1c(N2CCCCC2)c2ccc(N3CCCCC3)cc2n2c1nc1ccccc12`, the IC50 in series [1], in series [3], in series [4], in series [5], in series [7] and in series [8] was greater than 30 µM each time. Also, the results for the logD in series [2] and in series [6] were 7.51 and 9.11, respectively.
`N#CC1C(=O)c2ccccc2-n2c1nc1ccccc12` (stereo not given): the IC50 in series [1], in series [3], in series [4], in series [5], in series [7] and in series [8] was greater than 30 µM each time. In addition, the values for the logD in series [2] and in series [6] (read-out: logD) were 2.6 and 2.09, respectively.
In the case of `N#Cc1c(N2CCNCC2)c2sc3cc(N4CCNCC4)ccc3c2n2c1nc1ccccc12`, the IC50 is greater than 30 µM in series [1]; 17 µM in series [3]; 12 µM in series [4]; 4 µM in series [5]; 8 µM in series [7]; greater than 30 µM in series [8]. The logD in series [2] was -0.51; in series [6] (read-out: logD), 1.89.
As for `N#Cc1c(Cl)c2ccc(F)cc2n2c1nc1ccccc12`, the IC50 in series [1] is greater than 30 µM; in series [3] it was greater than 30 µM; in series [4], 2 µM; in series [5] it was 11 µM; in series [7], 5 µM; in series [8], greater than 30 µM. In addition, the logD amounted to 6.11 in series [2] and 6.05 in series [6] (read-out: logD).
On to `N#Cc1cc2sc3cc(F)ccc3c2n2c1nc1ccccc12`, for which the IC50 in series [1] was greater than 30 µM; in series [3], greater than 30 µM; in series [4], 1 µM; in series [5], greater than 30 µM; in series [7], greater than 30 µM; in series [8] it was greater than 30 µM. The logD in series [2] came to 6.32; in series [6] (read-out: logD) it was 6.3.
For the molecule `CC(C)CNc1c(C#N)c2nc3ccccc3n2c2c1sc1ccccc12`, the IC50 is greater than 30 µM in series [1]; greater than 30 µM in series [3]; 5 µM in series [4]; 9 µM in series [5]; greater than 30 µM in series [7]; greater than 30 µM in series [8]. Besides, the logD in series [2] was 4.67; in series [6] (read-out: logD), 6.99.
For the molecule `COc1cccc2c1C(=O)c1c(O)c3c(c(O)c1C2=O)C[C@@](O)(C(=O)CO)C[C@@H]3O[C@H]1C[C@H](N)[C@H](O)[C@H](C)O1` [DOXORUBICIN], the figures for the IC50 in series [1], in series [4] and in series [8] were 1.29 µM, 0.08 µM and 1.01 µM, respectively.
